Laboratory results as given in patent US20210244721A1, “SMALL MOLECULE ENTEROVIRUS INHIBITORS AND USES THEREOF” (priority 2020, published 2021).
Where two headings read alike, the source gives them in different places.

What was measured:
[1] = Cytotoxicity in Vero C1008 cells; conditions: African green monkey
CVB3 = assay: CPE assay, CVB3 in Vero C1008 cells; assay type: cell-based, coxsackievirus B3 (CVB3); conditions: Enterovirus B
EV-A71 Tainan/4643/98 = assay: CPE assay, EV-A71 Tainan in RD cells; assay type: cell-based; conditions: Enterovirus A
CVB3 2C protein = target: T1, CVB3 2C protein (Coxsackievirus B3, UniProt P03313); assay: Thermal shift assay (differential scanning fluorimetry); assay type: binding
T1 construct: CVB3 Nancy 2C (amino acids 37 to 329) protein; His tag with TEV site (inferred from the pET28a(+)-TEV vector and Ni-NTA purification); made in house; host or cells: E. coli Rosetta 2(DE3)
T1 sequence (P03313 1137-1429): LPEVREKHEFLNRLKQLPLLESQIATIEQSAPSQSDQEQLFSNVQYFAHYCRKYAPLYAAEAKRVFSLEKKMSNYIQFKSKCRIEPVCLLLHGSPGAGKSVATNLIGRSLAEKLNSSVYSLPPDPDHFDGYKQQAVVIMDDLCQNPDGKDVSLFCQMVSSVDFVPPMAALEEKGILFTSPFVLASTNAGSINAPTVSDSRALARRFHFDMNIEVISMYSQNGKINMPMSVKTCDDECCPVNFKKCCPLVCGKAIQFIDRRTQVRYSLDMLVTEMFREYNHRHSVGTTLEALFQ

in vitro = conditions: human
[2] = system: EV-D68 US/KY/14-18953 virus; assay: CPE assay, EV-D68 US/KY/14-18953 in RD cells; assay type: cell-based, Enterovirus D68 (EV-D68)
[3] = system: influenza B virus B/Brisbane/60/2008 (Victoria); assay: Plaque assay, influenza B virus; assay type: cell-based; conditions: 10 μM
Experimental: (§1) Plaque assay was performed using the condition described previously (see, Wang, Y.; et al., J. Med. Chem. 2018, 61, 1074-1085). […] Oseltamivir carboxylate was included as a positive control and was tested at 200 nM.

[4] = system: EV-D68 viral capsid protein VP1; assay: VP1 expression by immunofluorescence imaging and western blot; assay type: cell-based, Enterovirus D68 (EV-D68); conditions: for VP1 protein expression: 1 μM, US/KY/14-18953 MOI=1, 9 hpi, immunofluorescence imaging and western blot
Experimental: The EV-D68 2C protein is a highly conserved viral protein that plays multiple functions in genome replication. It has been implicated in RNA replication, membrane rearrangements, encapsidation, and uncoating (see, Van der Linden, L.; et al., Viruses 2015, 7, 4529-4562). Inhibition of viral 2C protein is expected to inhibit viral RNA and protein synthesis.
Total proteins were extracted at 9 hpi using RAPI lysis buffer [50 mM Tris (pH 8.0), 1% NP-40, 0.1% SDS, 150 mM NaCl, 0.5% Sodium deoxycholate, 5 mM EDTA, 10 mM NaF, 10 mM NaPPi, […] 1 mM PMSF]. Equal amount of extracted total proteins were separated by electrophoresis and transferred to a polyvinylidene difluoride (PVDF) membrane. Viral protein VP1 or host GAPDH was recognized by rabbit anti-VP1 (GeneTex: GTX132313; 1:3,000 dilution) or mouse anti-GAPDH antibody (EMD Millipore: MAB374; 1:3,000 dilution), respectively, followed by detection using Horse radish peroxidase (HRP)-conjugated secondary antibody (ThermoFisher Scientific: 32430 or 656120; 1:3,000 dilutions) and Supersignal West Femto substrate (ThermoFisher Scientific).
At 9 hpi, infected cells were fixed with 4% formaldehyde for 10 min followed by permeabilization with 0.2% Triton X-100 for another 10 min. After blocking with 10% bovine serum, cells were stained with rabbit anti-VP1 antibody (GeneTex: GTX132313) and followed by staining with anti-rabbit secondary antibody conjugated to Alexa-488 (ThermoFisher Scientific). Nucleus were stained with 300 nM DAPI (ThermoFisher Scientific) after secondary antibodies incubation. Fluorescent images were acquired using a Leica SP5-II spectral Confocal Microscope (Leica).

[5] = system: influenza A virus A/California/07/2009 (H1N1); assay: Plaque assay, influenza A virus; assay type: cell-based; conditions: 10 μM
Experimental: as §1

sodium channels = assay: Sodium flux assay in DRG neurons; conditions: rat DRG neurons, veratridine
Experimental: In this assay, rat dorsal root ganglia (DRG) neurons were incubated with various concentrations of testing compounds. Sodium channels were then activated by the sodium channel agonist veratridine. The resulting sodium flux was measured indirectly by quantifying the sodium channel triggered calcium flux, which was measured by a calcium-specific fluorescence dye (FIG. 4).
Dorsal root ganglion neurons were prepared as previously described^27 and were loaded for 30 minutes at 3TC with 3 μM Fura-2AM (Cat #F1221, Thermo Fisher, stock solution prepared at 1 mM in DMSO, 0.02% pluronic acid, Cat #P-3000MP, Life technologies) to follow changes in intracellular calcium ([Ca^2+]c) in a standard bath solution containing 139 mM NaCl, 3 mM KCl, 0.8 mM MgCl2, 1.8 mM CaCl2, 10 mM Na HEPES, pH 7.4, 5 mM glucose exactly as previously described^28 Fluorescence imaging was performed with an inverted microscope, NikonEclipseTi-U (Nikon Instruments Inc., Melville, N.Y.), using objective Nikon Fluor 4X and a Photometrics cooled CCD camera Cool SNAP ES^2 (Roper Scientific, Tucson, Ariz.) controlled by Nis Elements software (version 4.20, Nikon Instruments). […] Fluorescence was recorded through a 505-nm dichroic mirror at 535±25 nm. […] The changes in [Ca^2+]c were monitored by following a ratio of F340/F380, calculated after subtracting the background from both channels. […]

RD cells = conditions: human, 3 days
A549 = assay: Cytotoxicity in A549 cells
Experimental: (§2) The cytotoxicity of each compound was determined using the neutral red cell viability assay. The assay was performed under similar conditions (incubation temperature, time, and media) as the CPE, but excluded viral infection. Data acquisition and analysis (CC50) was performed similarly to the antiviral CPE assay, and all values are from triplicate experiments.

HeLa = assay: Cytotoxicity in HeLa cells
Experimental: as §2

A172 cells = assay: Cytotoxicity in A172 cells
Experimental: as §2

SH-SY5Y cells = assay: Cytotoxicity in SH-SY5Y cells
Experimental: as §2

[6] = Mouse microsomal stability; assay type: in vitro ADME; conditions: mouse liver microsomes
Experimental: Test compounds were incubated at 37° C. with liver microsomes (mouse or human) (Xenotech) at 1 μM drug concentration in the presence of a NADPH regenerating system at 0.5 mg/ml microsomal protein. Testosterone (3A4 substrate), Propafenone (2D6), and Diclofenac (2C9) were included as positive controls. Compounds were incubated with microsomes in the presence of a NADPH regenerating system (Sigma, Cat. No. N0505, Lot SLBH3107V). Aliquots at 0, 5, 10, 20, 30 and 60 minutes post incubation were collected and immediately mixed with cold acetonitrile containing internal standard (IS). Compounds incubated with microsomes without NADPH regenerating system for 60 minutes were also included. All the samples were analyzed by LC/MS/MS; disappearance of test compound were assessed based on peak area ratios of analyte/IS. Following equations were applied to calculate the microsome clearance: […]

EV-A71 US/AK/16-19516 = assay: CPE assay, EV-A71 US/AK in RD cells; assay type: cell-based; conditions: Enterovirus A, EVA71
EV-D68 US/MO/14-18947 = assay: CPE assay, EV-D68 US/MO/14-18947 in RD cells; conditions: EV-D68 US/MO/14-18947, RD cells
[7] = Enterovirus D, EVD68, RD, against five different strains of EV-D68 viruses (summary), read-out: EC50
[8] = EV-D68 US/KY/14-18953, RD cells, CPE assay, read-out: EC50
[9] = CVB3, Vero C1008 cells, read-out: EC50
[10] = EVA71, EV-A71 Tainan, RD cells, read-out: EC50

CNCCC(Oc1ccc(C(F)(F)F)cc1)c1ccccc1 (stereo not drawn)
CC50 at 3 days [1]: 11 µM

COc1ccc(CC(C)NCC(O)c2ccc(O)c(NC=O)c2)cc1 (stereo not drawn)
EC50 (CVB3; CVB3, Vero C1008): 9.9 µM | CC50 at 3 days [1]: > 300 µM | EC50 (EV-A71 Tainan/4643/98; EVA71, RD): > 100 µM

CNCCNC(=O)c1cc(-c2ccc(F)cc2)nc2ccccc12 [Compound 6aw, 2-(4 fluorophenyl)-N-[2-(methylamino)ethyl]quinoline-4-carboxamide]
thermal stability of CVB3 2C (CVB3 2C protein; three concentrations (10, 30 or 100 μM)): increased the thermal stability of CVB3 2C in a concentration dependent manner

O=C(NC1C2CNCC21)c1cc(-c2cccs2)nc2ccccc12 (stereo not drawn) [Compound 6bk, N-{3-azabicyclo[3.1.0]hexan-6-yl}b-2-(thiophen-2-yl)quinoline-4-carboxamide]
CC50 at 3 days (in vitro): 34.5 µM | SI = selectivity index (CC50/EC50) ([2]; EV-D68 US/KY/14-18953, RD cells): SI50 = 5.4 | EC50 ([2]; Enterovirus D, EVD68, RD, EV-D68 US/KY/14-18953, RD cells, CPE assay, read-out: EC50): 6.4 µM

CN(C)CCNC(=O)c1cc(-c2ccccc2)nc2ccccc12 [Compound 10a, N-[2-(dimethylamino)ethyl]-2-phenylquinoline-4-carboxamide]
inhibition in plaque assay [3]: no inhibition | VP1 protein expression ([4]; RD cells): completely blocked | EC50 ([2]; Enterovirus D, EVD68, RD, Table 6, EV-D68 US/KY/14-18953, RD cells): 0.4 ± 0.2 µM | EC50 [2, 7]: < 1 µM | inhibition in plaque assay [5]: no inhibition | inhibition of sodium current conductance (sodium channels; 2 μM to 50 μM): minimal to no effect

O=C(NC1CN2CCC1CC2)c1cc(-c2ccccc2)nc2ccccc12 (stereo not drawn) [Compound 10c, N-{1-azabicyclo[2.2.2]octan-3-yl}-2-phenylquinoline-4-carboxamide]
CC50 (RD cells): 46.5 ± 14.7 µM

CN(C)CCNC(=O)c1cc(-c2cccs2)nc2ccccc12 [Compound 12a, N-[2-(dimethylamino)ethyl]-2-(thiophen-2-yl)quinoline-4-carboxamide]
inhibition in plaque assay [3]: no inhibition | VP1 protein expression ([4]; RD cells): completely blocked | EC50 ([2]; EV-D68 US/KY/14-18953, RD cells, CPE assay, listed as 6bf): 0.04 µM | EC50 ([2]; Enterovirus D, EVD68, RD, against five different strains of EV-D68 viruses (summary)): < 1 µM | inhibition in plaque assay [5]: no inhibition

O=C(NCCN1CCCC1)c1cc(-c2cccs2)nc2ccccc12 [Compound 12c, N-[2-(pyrrolidin-1-yl)ethyl]-2-(thiophen-2-yl)quinoline-4-carboxamide]
inhibition in plaque assay [3]: no inhibition | VP1 protein expression ([4]; RD cells): completely blocked | EC50 [2, 7]: < 1 µM | inhibition in plaque assay [5]: no inhibition

CCCCOc1cc(C(=O)NCCN(CC)CC)c2ccccc2n1 [dibucaine, reference compound]
inhibition in plaque assay [3]: no inhibition | VP1 protein expression ([4]; RD cells): no effect | fluorescent signal of VP1 (immunofluorescence) ([4]; 3 μM, 9 hpi, compared to DMSO control): significantly reduced | VP1 expression (western blot) ([4]; 3 μM, RD cells, 9 hpi): nearly completely inhibited | inhibition in plaque assay [5]: no inhibition | inhibition of sodium current conductance (sodium channels; 20 μM and 50 μM): potently inhibited

Cc1ccc2c(c1)c1c3n2CCNC3CCC1 (stereo not drawn) [drawing 10]
CC50 (RD cells): 19 ± 1.6 µM

CCCCOc1cc(C(=O)NCCN(CC)CC)c2ccccc2n1 [drawing 127]
CC50 (A549): 37.5 µM | CC50 (HeLa): 36 µM

CN(C)CCNC(=O)c1cc(-c2ccccc2)nc2ccccc12 [drawing 128]
CC50 (A549): 121 µM | EC50 [2, 8]: 0.4 µM | CC50 (HeLa): 68.7 µM

CN(C)CCNC(=O)c1cc(-c2cccs2)nc2ccccc12 [drawing 129]
CC50 (A549): 98.8 µM | EC50 ([2]; EV-D68 US/KY/14-18953, RD cells, CPE assay): 0.04 µM | CC50 (HeLa): 51.2 µM

CCCCOc1cc(C(=O)NCCN(CC)CC)c2ccccc2n1 [drawing 131]
CC50 (A172 cells): > 30 µM | CC50 (SH-SY5Y cells): > 30 µM

CN(C)CCNC(=O)c1cc(-c2ccccc2)nc2ccccc12 [drawing 132]
CC50 (A172 cells): 88.4 µM | CC50 (SH-SY5Y cells): > 300 µM

CN(C)CCNC(=O)c1cc(-c2cccs2)nc2ccccc12 [drawing 133]
CC50 (A172 cells): 73.8 µM | CC50 (SH-SY5Y cells): 136 µM

O=C(NCCN1CCCC1)c1cc(-c2cccs2)nc2ccccc12 [drawing 134]
CC50 (A172 cells): 65.4 µM | CC50 (SH-SY5Y cells): 93.3 µM

CN(C)CCNC(=O)c1cc(-c2ccccc2)nc2ccccc12 [drawing 181]
half-life at 1 μM ([6]; 1 μM, NADPH, read-out: Mouse microsomal stability T1/2): 22.4 min | CLint scaled at 1 μM ([6]; scaled to liver): 246 mL/min/kg | EC50 (CVB3; [9]): 0.3 µM | EC50 (EV-A71 US/AK/16-19516): > 10 µM | EC50 (EV-D68 US/MO/14-18947): 0.2 µM | EC50 (EV-A71 Tainan/4643/98; [10]): 4.2 µM

CN(C)CCNC(=O)c1cc(-c2ccc(F)cc2)nc2ccccc12 [drawing 185]
EC50 [2, 8]: 0.1 µM | EC50 (CVB3; [9]): 0.06 µM | EC50 (EV-A71 US/AK/16-19516): 2.3 µM | EC50 (EV-D68 US/MO/14-18947; Enterovirus D, EVD68, RD): 0.05 µM | EC50 (EV-A71 Tainan/4643/98; [10]): 2.2 µM

NCCNC(=O)c1cc(-c2ccc(F)cc2)nc2ccccc12 [drawing 187]
EC50 [2, 8]: 0.4 µM | EC50 (CVB3; [9]): 0.4 µM | EC50 (EV-A71 US/AK/16-19516): 14 µM | EC50 (EV-D68 US/MO/14-18947; Enterovirus D, EVD68, RD): 0.3 µM | EC50 (EV-A71 Tainan/4643/98; [10]): 9 µM

CNCCNC(=O)c1cc(-c2cccs2)nc2ccccc12 [drawing 192]
EC50 [2, 8]: 0.3 µM | EC50 (CVB3; [9]): 0.3 µM | EC50 (EV-A71 US/AK/16-19516): 11.5 µM | EC50 (EV-D68 US/MO/14-18947; Enterovirus D, EVD68, RD): 0.2 µM | EC50 (EV-A71 Tainan/4643/98; [10]): 8.4 µM

CCCCOc1cc(C(=O)NCCN(CC)CC)c2ccccc2n1 [drawing 195]
EC50 (CVB3; [9]): 1.3 µM | CC50 at 3 days ([1]; Vero C1008 cells): 64.4 µM | EC50 (EV-A71 Tainan/4643/98; [10]): > 10 µM

N=C(N)N [guanidine, reference compound]
Tm shift (CVB3 2C protein; 1 mM, CVB3 2C 4.5 μM): 1.77 °C
